Data reported in patent US20180217163A1, “TREATMENT OF NEURODEGENERATIVE CONDITIONS USING PKC ACTIVATORS AFTER DETERMINING THE PRESENCE OF THE APOE4 ALLELE” (priority 2015, published 2018).
Where two headings read alike, the source gives them in different places.

Legend:
[1] = test system: PKC; settings: cited from earlier work
[2] = test system: squamous cell carcinoma and melanoma; settings: used topically; cited from earlier work
[3] = molecular target: PKC; settings: cited from earlier work; remark: listed apart in the source
[4] = molecular target: protein kinase C; settings: (-)-enantiomer; cited from earlier work
[5] = test system: NCI 60 cell line screen; settings: cited from earlier work
[6] = in vivo; cited from earlier work
[7] = test system: HDAC6; assay: HDAC6 nuclear translocation in SH-SY5Y cells (immunoblot); format: cell-based, human
Experimental: (§1) Human SH-SY5Y neuroblastoma cells (Sigma-Aldrich), were cultured in 45% F12K, 45% MEM, and 10% FBS. Cells were treated with cholesterol, ASPD, ApoE3/ApoE4+cholesterol, or PKC activators for 24 h. Cholesterol was dissolved in ethanol. ApoE (20 nM) and cholesterol (100 μM) were mixed separately into the cultures. To block the ApoE receptors, cells were treated with RAP for 30 min before adding ApoE. Human primary neurons (ScienCell Research Laboratories) were plated on poly-L-lysine-coated plates and were maintained in neuronal medium (ScienCell Research Laboratories) supplemented with the neuronal growth supplements (ScienCell Research Laboratories). Half of the culture medium was changed every 3 d and fresh activators were added with every medium change to maintain viable neurons.
A PBS solution of 5×10^6 Human SH-SY5Y neuroblastoma cells was centrifuged and the resultant cell pellet was resuspended and washed twice with cold PBS. After the second wash, the cell pellet was resuspended in 500 μl of hypotonic buffer (20 mM Tris-Cl, pH 7.4, 10 mM NaCl, 3 mM MgCl2, and 1 mM PMSF) and incubated on ice for 15 min. Next, 25 μl of 10% NP-40 was added to the cell suspension and the sample was vortexed for 10 s. The homogenate was centrifuged for 10 min at 1000×g at 4° C. to obtain the cytoplasmic fraction (supernatant) and nuclear fraction (pellet). After removing the supernetant, the nuclear pellet was resuspended in 50 μl of complete cell extraction buffer (100 mM Tris-Cl, pH 7.4, 2 mM Na3VO4, 100 mM NaCl, 1% Triton X-100, 1 mM EDTA, 10% glycerol, 1 mM EGTA, 0.1% SDS, 1 mM NaF, 0.5% deoxycholate, 20 mM Na4P2O7, and 1 mM PMSF) and incubated on ice for 30 min with vortexing at 10 min intervals. The nuclear lysate was centrifuged at 14,000×g for 30 min at 4° C. to obtain the nuclear fraction (supernatant). Protein concentration was measured using the Coomassie Plus (Bradford) Protein Assay kit (Pierce).
Protein in samples of the supernetant and nuclear fractions was separated by SDSPAGE in a 4-20% gradient Tris-Glycine gel (Invitrogen). The protein was then transferred to nitrocellulose membrane. The membrane was blocked with BSA at room temperature for 15 min and incubated with primary antibody overnight at 4° C. After incubation, the membrane was washed thrice (3×) with TBS-T (Tris-buffered saline-Tween 20) and further incubated with alkaline-phosphatase-conjugated secondary antibody (Jackson Immunoresearch Laboratories) at 1:10,000 dilution for 45 min. Following incubation, the membrane was washed 3× with TBS-T and developed using the 1-step NBT-BCIP substrate (Pierce). […] The immunoblot proteins were detected using ImageQuant RT-ECL (GE Life Sciences) and densitometric quantification was performed using IMAL software, which was developed at our institution. […]

[8] = test system: HDAC4; assay: HDAC4 nuclear translocation in SH-SY5Y cells (immunoblot); format: cell-based, human
Experimental: as §1
A PBS solution of 5×10^6 Human SH-SY5Y neuroblastoma cells was centrifuged and the resultant cell pellet was resuspended and washed twice with cold PBS. After the second wash, the cell pellet was resuspended in 500 μl of hypotonic buffer (20 mM Tris-Cl, pH 7.4, 10 mM NaCl, 3 mM MgCl2, and 1 mM PMSF) and incubated on ice for 15 min. Next, 25 μl of 10% NP-40 was added to the cell suspension and the sample was vortexed for 10 s. The homogenate was centrifuged for 10 min at 1000×g at 4° C. to obtain the cytoplasmic fraction (supernatant) and nuclear fraction (pellet). […] Protein concentration was measured using the Coomassie Plus (Bradford) Protein Assay kit (Pierce).
Protein in samples of the supernetant and nuclear fractions was separated by SDSPAGE in a 4-20% gradient Tris-Glycine gel (Invitrogen). […] The immunoblot proteins were detected using ImageQuant RT-ECL (GE Life Sciences) and densitometric quantification was performed using IMAL software, which was developed at our institution. […]

[9] = molecular target: PKC; settings: [3H] phorbol dibutyrate competition; cited from earlier work
[10] = test system: BDNF mRNA; assay: BDNF mRNA expression in SH-SY5Y cells (qRT-PCR); format: cell-based, human; settings: ASPD-treated cells
Experimental: as §1
qRT-PCR was performed and the results analyzed as described previously (Schmittgen et al., Analyzing real-time PCR data by the comparative C(T) method, Nat. Protoc., 3:1101-1108, 2008; Sen et al., 2012 supra). Total RNA (500 ng) was reverse transcribed using oligo(dT) and Superscript III (Invitrogen) at 50° C. for 1 h. The cDNA products were analyzed using a LightCycler 480 II (Roche) PCR machine and LightCycler 480 SYBR Green 1 master mix following the manufacturer's protocol. Primers for PKCε (forward primer: […], reverse primer: […], PKCα (forward-[…], reverse: […]), PKC (forward: […], reverse: CCGATG […]), GAPDH (forward: […], reverse: […]), and BDNF (forward: […], reverse: […]; Origene).

[11] = test system: PKCε mRNA; assay: PKCε mRNA expression in SH-SY5Y cells (qRT-PCR); format: cell-based, human; settings: ASPD-treated cells
Experimental: as §1
qRT-PCR was performed and the results analyzed as described previously (Schmittgen et al., Analyzing real-time PCR data by the comparative C(T) method, Nat. Protoc., 3:1101-1108, 2008; Sen et al., 2012 supra). Total RNA (500 ng) was reverse transcribed using oligo(dT) and Superscript III (Invitrogen) at 50° C. for 1 h. The cDNA products were analyzed using a LightCycler 480 II (Roche) PCR machine and LightCycler 480 SYBR Green 1 master mix following the manufacturer's protocol. […]

[12] = A-ring bryologs, read-out: affinity for PKC
[13] = ApoE4+ASPD induced translocation, 24 h
[14] = RAP 100 nM, 30 min before ApoE+Chol 24 h

## CCC1CC1CC1CC1CC1CC1CC1CC1CC1CC1CC1CC1CCC(=O)OC (stereo not shown) [DHA-CP6, cyclopropanated docosahexaenoic acid methyl ester]
[1]
  effective concentration: 10 nM

## C/C=C(/C)C(=O)O[C@H]1C(C)=C[C@]23C(=O)[C@@H](C=C(CO)[C@@H](O)[C@]12O)[C@H]1[C@@H](C[C@H]3C)C1(C)C [Ingenol-3-angelate]
[2]
  antitumor activity: exhibits antitumor activity

## CCCCCCCC(=O)OC1C(=CC(=O)OC)CC2CC(CO)OC(=O)CC(O)CCOC(C(C)(C)C)CC3CCOC(C=CC(C)(C)C1(O)O2)O3 (stereo not shown) [bryolog 3]
[3]; [12]
  Ki: 6.5 nM

## CCCCCCCCc1ccc2c3c(c[nH]c13)C[C@@H](CO)NC(=O)[C@H](C(C)C)N2C [Octylindolactam V]
[4]
  EC50: 29 nM

## CC1=CC[C@H](C)C(C)(C)[C@@H]1/C=C/C(C)=C/CC[C@@]1(CO)[C@H](CCCO)/C(=C(/C)C=O)CC[C@]1(C)O [Iripallidal]
[5]
  GI50 (concentration required to inhibit growth by 50%): from micromolar to nanomolar range

## CCC/C=C/C=C/C(=O)O[C@H]1/C(=C/C(=O)OC)C[C@H]2C[C@H]([C@@H](C)O)OC(=O)C[C@H](O)C[C@@H]3C[C@H](OC(C)=O)C(C)(C)C(O)(C[C@@H]4C/C(=C/C(=O)OC)C[C@H](/C=C/C(C)(C)[C@]1(O)O2)O4)O3 [Bryostatin-1]
[6]
  dose exhibiting no toxicity: 20 μg/week
  dose that may be associated with muscle pain: more than 35 μg/week
[7]; [13]
  reduction in nuclear HDAC6: 46±9.2%
[8]; [13]
  reduction of nuclear import of HDAC4: 40±8.4%

## CCCCCCCC(=O)OC1C(=CC(=O)OC)CC2CC(CO)OC(=O)CC(O)CCOC(c3ccccc3)CC3CCOC(C=CC(C)(C)C1(O)O2)O3 (stereo not shown) [bryolog 4]
[3]; [12]
  Ki: 2.3 nM

## CCCCCCCC(=O)OC1C(=CC(=O)OC)CC2CC(CO)OC(=O)CC(O)CCOC(CCCc3ccc(Br)cc3)CC3CCOC(C=CC(C)(C)C1(O)O2)O3 (stereo not shown) [bryolog 5]
[3]; [12]
  Ki: 1.9 nM

## CC1=C[C@]23C(=O)[C@@H](C=C(COC(=O)c4ccccc4)[C@@H](O)[C@]2(O)[C@H]1OC(=O)c1ccccc1)[C@H]1[C@@H](C[C@H]3C)C1(C)C [Ingenol 3,20-dibenzoate]
[9]
  Ki: 240 nM

## CCCCCCCC(=O)O[C@H]1/C(=C/C(=O)OC)C[C@H]2C[C@H](CO)OC(=O)C[C@H](O)C[C@@H]3CCC[C@H](C[C@@H]4CCO[C@H](/C=C/C(C)(C)[C@]1(O)O2)O4)O3 [Analog 1]
[3]
  affinity for PKC: highest affinity for PKC
[3]; read-out: PKC Affin
  Ki: 0.25 nM

## ASPD+Chol: amyloid-β amylospheroids prepared from Aβ1-42, plus cholesterol
[10]
  BDNF mRNA levels: 0.62±0.05 fold
[7]; 24 h, immunoblot
  HDAC6 in the nucleus, percentage of total protein: 21.7±2.8%
[11]
  PKCε mRNA levels: 0.58±0.06 fold

B1: RAP: recombinant human receptor-associated protein, ApoE receptor binding protein, from Molecular Innovations (protein, UniProt P30533 35-357, looked up)
Alpha-2-macroglobulin …: YSREKNQPKPSPKRESGEEFRMEKLNQLWEKAQRLHLPPVRLAELHADLKIQERDELAWKKLKLDGLDEDGEKEARLIRNLNVILAKYGLDGKKDARQVTSNSLSGTQEDGLDDPRLEKLWHKAKTSGKFSGEELDKLWREFLHHKEKVHEYNVLLETLSRTEEIHENVISPSDLSDIKGSVLHSRHTELKEKLRSINQGLDRLRRVSHQGYSTEAEFEEPRVIDLWDLAQSANLTDKELEAFREELKHFEAKIEKHNHYQKQLEIAHEKLRHAESVGDGERVSRSREKHALLEGRTKELGYTVKKHLQDLSGRISRARHNEL
[7]; [14]
  effect of RAP pretreatment on ApoE-mediated nuclear translocation of HDAC6: abolished the effects of ApoE3+Chol and ApoE4+Chol
[8]; [14]
  effect of RAP pretreatment on ApoE-mediated nuclear translocation of HDAC4: abolished the effects of ApoE3+Chol and ApoE4+Chol
